Test results published in patent publication EP4603105A1, “PHARMACEUTICAL COMPOSITION CONTAINING CYCLIC COMPOUND HAVING SELECTIVE KRAS INHIBITORY EFFECT AGAINST HRAS AND NRAS” (CHUGAI SEIYAKU KABUSHIKI KAISHA, priority 2022, dated 2024).

Experiments:
[1] = molecular target: GDP-bound NRAS wild-type protein (Homo sapiens, UniProt P01111); assay: Binding to NRAS by surface plasmon resonance (SPR), KD and KD ratio to KRAS
Method in brief: (§1)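 Recombinant RAS proteins bearing a biotinylated Avi tag and loaded with GDP served as the captured ligand, recaptured fresh every cycle. Binding responses were referenced to an uncoated surface and a buffer-only blank cycle. Dissociation constants were obtained by 1:1 model fitting at 30°C.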

[2] = test system: human colorectal cancer strain GP2d; assay type: cell-based
Procedure: (§2) A test compound was dispensed into a U-bottom 384-well plate as 40 nL serially diluted dimethyl sulfoxide solutions using a liquid handler Echo (LABCYTE). As for human colorectal cancer strain GP2d (ECACC), a cell suspension was prepared so as to have 500 cells/40 µL in a Dulbecco's modified Eagle medium supplemented with 10% fetal bovine serum (Sigma). This cell suspension was dispensed in an amount of 40 µL per well into a plate containing the test compound, and cultured at 37°C in a 5% carbon dioxide gas incubator. Seven days later, 20 µL of CellTiter-Glo (registered trademark) (Promega) was added to each well and luminescence was measured.

[3] = test system: human bladder cancer strain UM-UC-3; assay type: cell-based
Procedure: A test compound was dispensed into a U-bottom 384-well plate as 40 nL serially diluted dimethyl sulfoxide solutions using a liquid handler Echo (LABCYTE). As for human bladder cancer strain UM-UC-3 (ATCC), a cell suspension was prepared so as to have 250 cells/40 µL in an MEM medium (Nacalai Tesque) supplemented with 10% fetal bovine serum (Sigma), an MEM non-essential amino acids solution (100X), and 1 mmol/L sodium pyruvate. This cell suspension was dispensed in an amount of 40 µL per well into a plate containing the test compound, and cultured at 37°C in a 5% carbon dioxide gas incubator. Seven days later, 20 µL of CellTiter-Glo (registered trademark) (Promega) was added to each well and luminescence was measured. […]

[4] = test system: human gastric cancer strain SNU-1; assay type: cell-based
Procedure: A test compound was dispensed into a U-bottom 384-well plate as 40 nL serially diluted dimethyl sulfoxide solutions using a liquid handler Echo (LABCYTE). As for human gastric cancer strain SNU-1 (ATCC), a cell suspension was prepared so as to have 250 cells/40 µL in an RPMI-1640 medium (Sigma) supplemented with 10% fetal bovine serum (Sigma), a 2.5 g/L D-(+)-glucose solution, 10 mmol/L HEPES, and 1 mmol/L sodium pyruvate. This cell suspension was dispensed in an amount of 40 µL per well into a plate containing the test compound, and cultured at 37°C in a 5% carbon dioxide gas incubator. Seven days later, 20 µL of CellTiter-Glo (registered trademark) (Promega) was added to each well and luminescence was measured.

[5] = test system: human ovarian cancer strain OV7; assay type: cell-based
Procedure: A test compound was dispensed into a U-bottom 384-well plate as 40 nL serially diluted dimethyl sulfoxide solutions using a liquid handler Echo (LABCYTE). As for human ovarian cancer strain OV7 (ECACC), a cell suspension was prepared so as to have 250 cells/40 µL in a DMEM/Ham's F-12 medium (Nacalai Tesque) supplemented with 5% fetal bovine serum (Sigma), 0.5 µg/mL hydrocortisone, and 10 µg/mL insulin. This cell suspension was dispensed in an amount of 40 µL per well into a plate containing the test compound, and cultured at 37°C in a 5% carbon dioxide gas incubator. Seven days later, 20 µL of CellTiter-Glo (registered trademark) (Promega) was added to each well and luminescence was measured.

[6] = molecular target: GDP-bound KRAS wild-type protein (Homo sapiens, UniProt P01116); assay: Binding to KRAS by surface plasmon resonance (SPR), dissociation constant KD; details: Single Cycle Kinetics
Chain of GDP-bound KRAS wild-type protein (P01116 1-188 isoform P01116-2): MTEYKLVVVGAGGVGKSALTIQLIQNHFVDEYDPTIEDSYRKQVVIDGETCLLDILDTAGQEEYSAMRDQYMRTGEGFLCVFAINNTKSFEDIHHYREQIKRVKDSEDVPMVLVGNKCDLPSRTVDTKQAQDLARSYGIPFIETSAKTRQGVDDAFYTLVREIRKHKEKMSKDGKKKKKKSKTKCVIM
Method in brief: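 Compound binding is evaluated by SPR single-cycle kinetics, with concentrations added intermittently from low to high for 75 s each. Target surfaces carry GDP-loaded biotinylated Avi-RAS at about 100–300 RU, regenerated after each cycle; temperature 30°C. A 1:1 binding model gives KD.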

[7] = molecular target: HRAS wild-type protein (Homo sapiens, UniProt P01112); assay: Binding to HRAS by surface plasmon resonance (SPR), KD and KD ratio to KRAS
Chain of HRAS wild-type protein (P01112 whole entry): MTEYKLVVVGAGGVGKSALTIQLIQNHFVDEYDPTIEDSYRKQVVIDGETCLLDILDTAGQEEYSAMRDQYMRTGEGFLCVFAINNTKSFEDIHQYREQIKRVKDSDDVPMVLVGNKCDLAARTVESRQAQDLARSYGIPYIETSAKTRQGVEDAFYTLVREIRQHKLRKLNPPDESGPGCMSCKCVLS
Method in brief: as §1

[8] = test system: human pancreatic cancer strain KP4; assay type: cell-based
Procedure: as §2, with “pancreatic” for “colorectal”, “KP4 (Institute of Physical and Chemical Research),” for “GP2d (ECACC),”, “DMEM/Ham's F-12” for “Dulbecco's modified Eagle”, “medium (Nacalai Tesque)” for “medium”

[9] = test system: human lung cancer strain NCI-H441; assay type: cell-based
Method in brief: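 Signal came from […] measured per well once the reagent was added. Beforehand, cells were cultured at 37°C and 5% carbon dioxide on a compound series serially diluted in dimethyl sulfoxide.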

[10] = test system: human gastric cancer strain GSU; assay type: cell-based
Procedure: as §2, with “gastric” for “colorectal”, “GSU (Institute of Physical and Chemical Research),” for “GP2d (ECACC),”, “200” for “500”, “an RPMI-1640” for “a Dulbecco's modified Eagle”, “medium (Sigma)” for “medium”

[11] = ratio of KD for GDP-bound NRAS wild-type protein to KD for KRAS
[12] = ratio of KD for HRAS wild-type protein to KD for KRAS

Chain of GDP-bound NRAS wild-type protein (P01111 whole entry): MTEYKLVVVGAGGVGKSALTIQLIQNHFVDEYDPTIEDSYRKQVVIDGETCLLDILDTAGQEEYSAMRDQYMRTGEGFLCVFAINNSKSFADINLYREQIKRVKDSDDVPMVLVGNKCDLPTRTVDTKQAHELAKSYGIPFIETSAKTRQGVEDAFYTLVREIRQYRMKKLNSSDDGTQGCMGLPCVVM

| SMILES | IC50 [2] | IC50 [3] | IC50 [4] | IC50 [5] | Kd [6] | IC50 [8] | IC50 [9] | IC50 [10] | Kd ([6]; 1:1 binding model) | NRAS /KRAS [1, 11] | HRAS /KRAS [7, 12] | NRAS /KRAS ([1]; ratio of the KD value with respect to GDP-bound NRAS wild-type protein to the KD value with respect to KRAS) | HRAS /KRAS ([7]; ratio of the KD value with respect to HRAS wild-type protein to the KD value with respect to KRAS) |
| --- | --- | --- | --- | --- | --- | --- | --- | --- | --- | --- | --- | --- | --- |
| CCO[C@@H]1C[C@H]2C(=O)NC3(CCCC3)C(=O)N(C)[C@@H](C3CCCC3)C(=O)N(C)[C@H](C(=O)N(C)C)CC(=O)N(C)[C@@H](CC(C)C)C(=O)N[C@@H]([C@@H](C)CC)C(=O)N(C)CC(=O)N(C)[C@H]3C/C=C\CCN(C3=O)[C@@H](Cc3ccc(C(F)(F)F)cc3)C(=O)N(C)CC(=O)N[C@@H](CCc3cc(F)c(C(F)(F)F)c(F)c3)C(=O)N2C1 [PP1105, (2S,8S,12R,14S,20S,23S,27S,30S,36S,38Z)-20-cyclopentyl-8-[2-[3,5-difluoro-4-(trifluoromethyl)phenyl]ethyl]-12-ethoxy-27-isobutyl-N,N,4,19,22,26,32,35-octamethyl-30-[(1S)-1-methylpropyl]-3,6,9,15,18,21,25,28,31,34,42-undecaoxo-2-[[4-(trifluoromethyl)phenyl]methyl]spiro[1,4,7,10,16,19,22,26,29,32,35-undecazatricyclo[34.5.1.0^10,14]dotetracont-38-ene-17,1'-cyclopentane]-23-carboxamide] | 2.9 nM | 2.1 nM | 2.7 nM | 8.1 nM | 0.07 nM | 3.1 nM | 12 nM | 0.3 nM |  | A (a compound having 10 or more and less than 20 is denoted as A) | A (a compound having 10 or more and less than 20 is denoted as A) |  |  |
| CCC[C@H]1C(=O)N[C@@H]([C@@H](C)CC)C(=O)N(C)CC(=O)N(C)[C@H]2C/C=C\CCN(C2=O)[C@@H](Cc2ccc(C(F)(F)F)cc2)C(=O)N(C)CC(=O)N[C@@H](CCc2ccc(Cl)c(Cl)c2)C(=O)N2C[C@H](OCC)C[C@H]2C(=O)NC2(CC(C)(C)C2)C(=O)N(C)[C@@H](C(CC)CC)C(=O)N(C)[C@H](C(=O)N(C)C)CC(=O)N1C [PP2175, (2S,8S,12R,14S,20S,23S,27S,30S,36S,38Z)-8-[2-(3,4-dichlorophenyl)ethyl]-12-ethoxy-20-(1-ethylpropyl)-N,N,3',3',4,19,22,26,32,35-decamethyl-30-[(1S)-1-methylpropyl]-3,6,9,15,18,21,25,28,31,34,42-undecaoxo-27-propyl-2-[[4-(trifluoromethyl)phenyl]methyl]spiro[1,4,7,10,16,19,22,26,29,32,35-undecazatricyclo[34.5.1.0^10,14]dotetracont-38-ene-17,1'-cyclobutane]-23-carboxamide] | 24.8 nM | 19.7 nM | 20 nM | 80.2 nM |  | 102 nM | 25.7 nM | 0.5 nM | 0.45 nM |  |  | AA (a compound having 20 or more is denoted as AA) | A (a compound having 10 or more and less than 20 is denoted as A) |
| CCC[C@H]1C(=O)N[C@@H]([C@@H](C)CC)C(=O)N(C)CC(=O)N(C)[C@H]2C/C=C\CCN(C2=O)[C@@H](Cc2ccc(C(F)(F)F)cc2)C(=O)N(C)CC(=O)N[C@@H](CCc2ccc(C(F)(F)F)c(Cl)c2)C(=O)N2CC3(CC3)C[C@H]2C(=O)NC2(CCC2)C(=O)N(C)[C@@H](C(CC)CC)C(=O)N(C)[C@H](C(=O)N(C)C)CC(=O)N1C [PP3414] | 13 nM | 29 nM | 19.7 nM | 50.9 nM | 0.37 nM | 29.3 nM | 11.9 nM | 4.3 nM |  | AA (a compound having 20 or more is denoted as AA) | A (a compound having 10 or more and less than 20 is denoted as A) |  |  |

More lines, main results first:

| IC50 [2] | IC50 [3] | IC50 [4] | IC50 [5] | Kd [6] | IC50 [8] | IC50 [9] | IC50 [10] | Kd ([6]; 1:1 binding model) | SMILES | NRAS /KRAS [1, 11] | HRAS /KRAS [7, 12] | NRAS /KRAS ([1]; ratio of the KD value with respect to GDP-bound NRAS wild-type protein to the KD value with respect to KRAS) | HRAS /KRAS ([7]; ratio of the KD value with respect to HRAS wild-type protein to the KD value with respect to KRAS) |
| --- | --- | --- | --- | --- | --- | --- | --- | --- | --- | --- | --- | --- | --- |
| 3.8 nM | 3.7 nM | 6.6 nM | 7.1 nM | 0.1 nM | 9.3 nM | 5.7 nM | 1.9 nM |  | C#CC[C@H]1C(=O)N[C@@H]([C@@H](C)CC)C(=O)N2CCC[C@H]2C(=O)N(C)[C@H]2C/C=C\CCN(C2=O)[C@@H](Cc2ccc(C)cc2)C(=O)N(C)CC(=O)N[C@@H](CCc2ccc(C(F)(F)F)c(OC)c2)C(=O)N2C[C@H](OCC)C[C@H]2C(=O)N(C)C2(CCC2)C(=O)N(C)[C@@H](C2CCCC2)C(=O)N(C)[C@H](C(=O)N(C)C)CC(=O)N1C [PP3255, (1S,4S,10S,13S,17S,20S,26S,28R,32S,38S,42Z)-20-cyclopentyl-28-ethoxy-32-[2-[3-methoxy-4-(trifluoromethyl)phenyl]ethyl]-N,N,2,14,18,21,24,36-octamethyl-10-[(1S)-1-methylpropyl]-3,9,12,15,19,22,25,31,34,37,45-undecaoxo-13-prop-2-ynyl-38-(p-tolylmethyl)spiro[2,8,11,14,18,21,24,30,33,36,39-undecazatetracyclo[37.5.1.0^4,8.0^26,30]pentatetracont-42-ene-23,1'-cyclobutane]-17-carboxamide] | A (a compound having 10 or more and less than 20 is denoted as A) | A (a compound having 10 or more and less than 20 is denoted as A) |  |  |
| 2.9 nM | 2.2 nM | 4.3 nM | 4.3 nM | 0.096 nM | 6.8 nM | 2.4 nM | 0.6 nM |  | CCO[C@@H]1C[C@H]2C(=O)OC3(CCC3)C(=O)N(C)[C@@H](C3CCCC3)C(=O)N(C)[C@H](C(=O)N(C)C)CC(=O)N(C)[C@@H]([C@@H](C)OC)C(=O)N[C@@H]([C@@H](C)CC)C(=O)N(C)CC(=O)N(C)[C@H]3C/C=C\CCN(C3=O)[C@@H](Cc3ccc(C(F)(F)F)cc3)C(=O)N(C)CC(=O)N[C@@H](CCc3ccc(C(F)(F)F)c(OC)c3)C(=O)N2C1 [PP3376, (2S,8S,12R,14S,20S,23S,27S,30S,36S,38Z)-20-cyclopentyl-12-ethoxy-27-[(1R)-1-methoxyethyl]-8-[2-[3-methoxy-4-(trifluoromethyl)phenyl]ethyl]-N,N,4,19,22,26,32,35-octamethyl-30-[(1S)-1-methylpropyl]-3,6,9,15,18,21,25,28,31,34,42-undecaoxo-2-[[4-(trifluoromethyl)phenyl]methyl]spiro[16-oxa-1,4,7,10,19,22,26,29,32,35-decazatricyclo[34.5.1.0^10,14]dotetracont-38-ene-17,1'-cyclobutane]-23-carboxamide] | A (a compound having 10 or more and less than 20 is denoted as A) | A (a compound having 10 or more and less than 20 is denoted as A) |  |  |
